Results taken from patent US7169972B2, “Methods and compositions to modulate ethylene sensitivity” (The Salk Institute for Biological Studies, priority 2001, dated 2007).

Tested on: Arabidopsis etiolated seedlings
Assay: Ethylene response of etiolated seedlings grown on AT plates versus AT plus ACC (root length inhibition)
Format: in vivo, Arabidopsis thaliana
Conditions: 10 uM ACC, 5 days
Experimental: (§1) Phenotypes of 5-day-old etiolated seedlings grown on AT plates in the absence or presence of 10 uM ACC. Data are presented in tabular (A) and graph (B) forms. Ethylene response of 5-day-old etiolated seedlings of WS, Col and two independent quadruple mutant isolates was quantified. Root and hypocotyl lengths of seedlings grown on AT plates versus AT plus 10 uM ACC were measured. Each data point represents the average organ length of 50 or more seedlings plus/minus standard deviation. Fold inhibition was calculated as the ratio of the average organ length in air to that in ACC.
To overcome the redundancy problem, crosses were performed between the mutants in different EDF genes to construct double, triple and quadruple mutant combinations. Mutant genotypes were assayed by PCR. […] Importantly, the observed ethylene insensitivity was more dramatic in the quadruple mutant combinations that involved the strong edf1-1 allele (i.e. edf1-1 edf2-1 edf3-1 edf4-1 and edf1-1 edf2-2 edf3-1 edf4-1), compared to those that included the edf1-2 allele (edf1-2 edf2-1 edf3-1 edf4-1 and edf1-2 edf2-2 edf3-1 edf4-1). The weaker phenotype of the latter quadruple mutant combinations is consistent with the leaky expression of EDF1 in the edf1-2 mutant.
as §1, with “were measured. […] Fold inhibition” for “were measured. Each data point represents the average organ length of 50 or more seedlings plus/minus standard deviation. Fold inhibition”, “in ACC. Similar, yet less dramatic, differences were detected when the hypocotyls of the quadruple and wild-type seedlings were measured.” for “in ACC.”
Arabidopsis thaliana accession Columbia-0 was used for all overexpression studies. […] After 3–4 days in the light at 4 degrees C., the plates were wrapped in foil and kept in a 24 C incubator, after which the phenotypes of seedlings were analyzed. […]

For `NC1(C(=O)O)CC1` [ACC, 1-aminocyclopropane-1-carboxylic acid], the “root length inhibition (fold; ratio of average organ length in air to that in ACC)” value (Columbia wild-type seedlings) was 9.5 fold, the “root length inhibition (fold; ratio of average organ length in air to that in ACC)” value (WS wild-type seedlings) was 12 fold and the “root length inhibition (fold; ratio of average organ length in air to that in ACC)” value (quadruple mutant edf1-1 edf2-1 edf3-1 edf4-1 seedlings) was “less than 7 fold”.
